pIC50: −log10 of the molar value. Like-named read-outs stand apart in the source and are kept apart here.

For the test, the target named is T1, human CGT (Homo sapiens, UniProt Q16880).
T1 sequence (Q16880 21-541): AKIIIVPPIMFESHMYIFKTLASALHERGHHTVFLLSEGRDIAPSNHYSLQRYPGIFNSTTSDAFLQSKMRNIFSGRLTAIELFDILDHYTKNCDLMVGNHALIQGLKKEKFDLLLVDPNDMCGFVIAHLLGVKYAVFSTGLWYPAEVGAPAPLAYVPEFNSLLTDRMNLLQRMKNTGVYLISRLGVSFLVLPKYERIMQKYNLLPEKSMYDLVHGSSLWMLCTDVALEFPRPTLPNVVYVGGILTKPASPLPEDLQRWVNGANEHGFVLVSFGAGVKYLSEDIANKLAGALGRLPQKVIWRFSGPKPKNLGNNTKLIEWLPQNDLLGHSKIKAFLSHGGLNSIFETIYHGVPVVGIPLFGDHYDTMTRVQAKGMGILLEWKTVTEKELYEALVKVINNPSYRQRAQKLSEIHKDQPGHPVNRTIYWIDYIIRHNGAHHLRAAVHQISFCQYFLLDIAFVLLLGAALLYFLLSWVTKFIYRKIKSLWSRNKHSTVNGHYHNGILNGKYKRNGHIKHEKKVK
Put plainly: Assay 1: CGT Enzymatic Assay (RapidFire/MS/MS, 0.01% Tween 80). It is filed as biochemical. The following applies: Table 1, Compounds of Formula (I) and Formula (II), CGT enzymatic assay, read-out: IC50.

Where [1] appears, read: C6-NBD-dihydro-galactosylceramide readout.

As to `CC(=O)c1cccc(C2(O)[C@@H](C)N(c3ccc(Cl)cc3)C(=O)N2c2ccc(Cl)cc2)c1` (stereo partly drawn) [Compound 136-2, (5R)-4-(3-acetylphenyl)-1,3-bis(4-chlorophenyl)-4-hydroxy-5-methylimidazolidin-2-one], the pIC50 is more than 6.00.
Take `O=C1N(c2ccc(I)cc2)C(=O)C(O)(c2ccccc2)N1c1ccc(I)cc1` (centres unmarked) [Example 203, 5-hydroxy-1,3-bis(4-iodophenyl)-5-phenylimidazolidine-2,4-dione]: the negative logarithm of the IC50 (pIC50) was 4.30 to 5.00.
As for `CCCC1N(c2ccc(Br)cc2)C(=O)N(c2ccc(Br)cc2)C1(O)c1cccc(Cl)c1` (centres unmarked) [Compound 119, 1,3-bis(4-bromophenyl)-4-(3-chlorophenyl)-4-hydroxy-5-propylimidazolidin-2-one], the pIC50 is more than 6.00.
`CCC[C@@H]1N(c2ccc(Cl)cc2)C(=O)N(c2ccc(Cl)cc2)C1(O)c1cccc(C#N)c1` (single isomer, unassigned) [Compound 101-1]: the pIC50 was more than 6.00.
On the same count and under the same terms, to `CCCC1N(c2ccc(Cl)cc2)C(=O)N(c2ccc(Cl)cc2)C1(O)c1cccc(Cl)c1` (centres unmarked) [Compound 114, 4-(3-chlorophenyl)-1,3-bis(4-chlorophenyl)-4-hydroxy-5-propylimidazolidin-2-one] belongs more than 6.00; to `N#Cc1cc(Cl)cc(C2(O)CN(c3ccc(Br)cc3)C(=O)N2c2ccc(Br)cc2)c1` (centres unmarked) [Compound 113, 3-(1,3-bis(4-bromophenyl)-4-hydroxy-2-oxoimidazolidin-4-yl)-5-chlorobenzonitrile], 5.00 to 6.00.
For `O=C1N(c2ccc(Cl)cc2F)C(=O)C(O)(c2ccccc2)N1c1ccc(Cl)cc1F` (centres unmarked) [Compound 155, 1,3-bis(4-chloro-2-fluorophenyl)-5-hydroxy-5-phenylimidazolidine-2,4-dione], the pIC50 is less than 4.30.
Still for that read-out and setting: to `C[C@]1(c2ccccc2)N(c2ccc(Cl)cc2)C(=O)N(c2ccc(Cl)cc2)[C@@]1(O)c1ccccc1` [Compound 121-4, (4R,5R)-1,3-bis(4-chlorophenyl)-4-hydroxy-5-methyl-4,5-diphenylimidazolidin-2-one] belongs 5.00 to 6.00; to `CCCC1N(c2ccc(Br)cc2)C(=O)N(c2ccc(Br)cc2)C1(O)c1cccc(C)c1` (centres unmarked) [Compound 96, 1,3-bis(4-bromophenyl)-4-hydroxy-5-propyl-4-(m-tolyl)imidazolidin-2-one], more than 6.00; to `CC1(C)N(c2ccc(C(F)(F)F)cc2)C(=O)N(c2ccc(C(F)(F)F)cc2)C1(O)c1cccc(C#N)c1` (centres unmarked) [Example 192, 3-(4-hydroxy-5,5-dimethyl-2-oxo-1,3-bis(4-(trifluoromethyl)phenyl)-imidazolidin-4-yl)benzonitrile], more than 6.00.
Regarding `Cc1cccc(C2(O)[C@H](C)N(c3ccc(Cl)cc3)C(=O)N2c2ccc(Cl)cc2)c1` (some centres unmarked) [Example 36-1], the pIC50 is more than 6.00.
Turning to `CCC[C@@H]1N(c2ccc(Br)cc2)C(=O)N(c2ccc(Br)cc2)C1(O)c1cccc(C)c1` (stereo partly drawn) [Compound 96-1, (5S)-1,3-bis(4-bromophenyl)-4-hydroxy-5-propyl-4-(m-tolyl)imidazolidin-2-one], the pIC50 is more than 6.00.
As to `CN(C)C[C@@H]1N(c2ccc(Cl)cc2)C(=O)N(c2ccc(Cl)cc2)C1(O)c1cccc(OC(F)(F)F)c1` (single isomer, unassigned) [Example 166-1], the pIC50 is more than 6.00.
As for `CCC1N(c2ccc(Br)cc2)C(=O)N(c2ccc(Br)cc2)C1(O)c1ccccc1` (centres unmarked) [Example 25, 1,3-bis(4-bromophenyl)-5-ethyl-4-hydroxy-4-phenylimidazolidin-2-one], the pIC50 is more than 6.00.
As for `Cc1ccc(N2C(=O)N(c3ccc(C)cc3)C(O)(c3cccc(C#N)c3)C2C)cc1` (centres unmarked) [Compound 105, 3-(4-hydroxy-5-methyl-2-oxo-1,3-di-p-tolylimidazolidin-4-yl)benzonitrile], the pIC50 was more than 6.00.
Consider `CCC1N(c2ccc(Cl)cc2)C(=O)N(c2ccc(Cl)cc2)C1(O)c1cccc(OC(F)(F)F)c1` (centres unmarked) [Compound 82, 1,3-bis(4-chlorophenyl)-5-ethyl-4-hydroxy-4-(3-(trifluoromethoxy)phenyl)imidazolidin-2-one], for which the pIC50 was more than 6.00.
Consider `C[C@H]1N(c2ccc(Cl)cc2)C(=O)N(c2ccc(Cl)cc2)C1(O)c1cccc(Br)c1` (stereo partly drawn) [Compound 94-2, (5R)-4-(3-bromophenyl)-1,3-bis(4-chlorophenyl)-4-hydroxy-5-methylimidazolidin-2-one], for which the negative logarithm of the IC50 (pIC50) was more than 6.00.
Regarding `Cc1cccc(C2(O)[C@@H](C)N(c3ccc(Cl)cc3)C(=O)N2c2ccc(Cl)cc2)c1` (some centres unmarked) [Example 36-2], the pIC50 is 5.00 to 6.00.
On to `N#Cc1ccc(N2C(=O)N(c3ccc(Cl)cc3)C(O)(c3cccc(OC(F)(F)F)c3)C23CCC3)cc1` (centres unmarked) [Compound 269, 4-(7-(4-chlorophenyl)-8-hydroxy-6-oxo-8-(3-(trifluoromethoxy)phenyl)-5,7-diazaspiro[3.4]octan-5-yl)benzonitrile], for which the pIC50 under setting [1] was more than 6.00.
With `O=c1n(-c2ccc(Br)cc2)c2c(n1-c1ccc(Br)cc1)CCCC2` [Example 18], the pIC50 was 4.30 to 5.00.
Same read-out and setting: for `C[C@H]1N(c2ccc(Br)cc2)C(=O)N(c2ccc(Br)cc2)C1(O)c1cccc(OC(F)(F)F)c1` (stereo partly drawn) [Compound 66-2, (5R)-1,3-bis(4-bromophenyl)-4-hydroxy-5-methyl-4-(3-(trifluoromethoxy)phenyl)imidazolidin-2-one] the value was more than 6.00.
Take `N#Cc1ccc(N2C(=O)N(c3ccc(Cl)cc3)C3(CCC3)C2(O)c2cccc(OC(F)(F)F)c2)cc1` (centres unmarked) [Compound 288, 4-(5-(4-chlorophenyl)-8-hydroxy-6-oxo-8-(3-(trifluoromethoxy)phenyl)-5,7-diazaspiro[3.4]octan-7-yl)benzonitrile]: the negative logarithm of the IC50 (pIC50) under setting [1] was more than 6.00.
For the molecule `CC1N(c2ccccc2)C(=O)N(c2ccccc2)C1(O)c1cccc(OC(F)(F)F)c1` (centres unmarked) [Example 230, 4-hydroxy-5-methyl-1,3-diphenyl-4-(3-(trifluoromethoxy)phenyl)imidazolidin-2-one], the negative logarithm of the IC50 (pIC50) was 5.00 to 6.00.
Still for that read-out and setting: for `C[C@H]1N(c2ccc(Cl)cc2)C(=O)N(c2ccc(Cl)cc2)C1(O)c1cccc(OC(F)(F)F)c1` (stereo partly drawn) [Compound 129-2, (5R)-1,3-bis(4-chlorophenyl)-4-hydroxy-5-methyl-4-(3-(trifluoromethoxy)phenyl)imidazolidin-2-one] the value was more than 6.00.
On to `Cc1ccc(N2C(=O)N(c3ccc(C)cc3)C(O)(c3cccc(C(C)(F)F)c3)C23COC3)cc1` (centres unmarked) [Compound 286, 8-(3-(1,1-difluoroethyl)phenyl)-8-hydroxy-5,7-di-p-tolyl-2-oxa-5,7-diazaspiro[3.4]octan-6-one], for which the pIC50 under setting [1] is more than 6.00.
The same measure, in the same setting: to `N#Cc1ccc(N2C(=O)N(c3ccc(Br)cc3)C(O)(c3cccc(OC(F)(F)F)c3)C23CCCC3)cc1` (centres unmarked) [Example 325, 4-(3-(4-bromophenyl)-4-hydroxy-2-oxo-4-(3-(trifluoromethoxy)phenyl)-1,3-diazaspiro[4.4]nonan-1-yl)benzonitrile] belongs more than 6.00.
In the case of `CCCCCCC1(O)C(=O)N(c2ccc(Br)cc2)C(=O)N1c1ccc(Br)cc1` (centres unmarked) [Example 157, 1,3-bis(4-bromophenyl)-5-hexyl-5-hydroxyimidazolidine-2,4-dione], the pIC50 was 4.00 to 4.30.
Consider `Cc1c(-c2cccc(C#N)c2)n(-c2ccc(Cl)cc2)c(=O)n1-c1ccc(Cl)cc1` [Example 3], for which the negative-log IC50 (pIC50) is more than 6.00.
On to `CCc1cccc(C2(O)C(C)N(c3ccc(Cl)cc3)C(=O)N2c2ccc(Cl)cc2)c1` (centres unmarked) [Compound 69, 1,3-bis(4-chlorophenyl)-4-(3-ethylphenyl)-4-hydroxy-5-methylimidazolidin-2-one], for which the pIC50 is more than 6.00.

The values are drawn from patent US20190134005A1 (BioMarin Pharmaceutical Inc., priority 2016, published 2019).
